Assay results taken from patent US20150218172A1, “Pyrrolo[2,3-D]Pyrimidine Tropomyosin-Related Kinase Inhibitors” (PFIZER LIMITED, priority 2012, published 2015).

Molecular target: T1, TrkA (Homo sapiens, UniProt P04629)
T1 construct: aa 441-796; His; purchased Invitrogen PV3144
Test: Isolated TRK enzyme assay (HTRF KinEASE-TK kit), PV3144 TrkA enzyme assay
Assay type: biochemical
Details: PV3144 TrkA enzyme assay, recombinant His-tagged cytoplasmic domain aa 441-796, 4 nM enzyme, 40 uM ATP; arithmetic mean where more than one reading; read-out: Trka enzyme (IC50)
Method in brief: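 Recombinant His-tagged cytoplasmic domain of human TrkA, preactivated with ATP for 20 min, then 20 min with compound before biotinylated TK substrate (1 uM final) at room temperature. HTRF read at 665/620 nm; % inhibition normalised to reference-compound and DMSO controls, IC50 from sigmoid fit, mean of replicates.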

T1 sequence (P04629 441-796): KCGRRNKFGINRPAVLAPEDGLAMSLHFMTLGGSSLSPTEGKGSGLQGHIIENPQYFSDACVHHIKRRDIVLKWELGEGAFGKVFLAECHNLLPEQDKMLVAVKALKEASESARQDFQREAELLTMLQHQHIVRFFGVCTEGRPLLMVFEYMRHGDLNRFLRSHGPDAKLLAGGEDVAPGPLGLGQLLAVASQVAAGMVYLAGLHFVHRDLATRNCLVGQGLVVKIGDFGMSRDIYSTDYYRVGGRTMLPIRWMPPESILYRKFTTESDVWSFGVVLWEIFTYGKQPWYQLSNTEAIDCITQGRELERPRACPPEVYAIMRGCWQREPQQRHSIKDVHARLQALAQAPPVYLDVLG

Compound: Cc1ccnn1CC(=O)Nc1cc(C(=O)c2cn(CCO)c3ncncc23)ccn1 [Example 130, N-(4-{[7-(2-hydroxyethyl)-7H-pyrrolo[2,3-d]pyrimidin-5-yl]carbonyl}pyridin-2-yl)-2-(5-methyl-1H-pyrazol-1-yl)acetamide]
- IC50: 1750 nM

Compound: O=C(Cc1ccc(OC(F)(F)F)cc1)Nc1ccnc(C(=O)c2cn(C(CO)CO)c3ncncc23)c1 [Example 98, N-(2-{[7-(1,3-dihydroxypropan-2-yl)-7H-pyrrolo[2,3-d]pyrimidin-5-yl]carbonyl}pyridin-4-yl)-2-[4-(trifluoromethoxy)phenyl]acetamide]
- IC50: 1500 nM

Compound: CC(C)(C)n1cc(C(=O)c2cc(NC(=O)Cc3ccc(Cl)cc3)ccn2)c2cncnc21 [Example 42, N-{2-[(7-tert-butyl-7H-pyrrolo[2,3-d]pyrimidin-5-yl)carbonyl]pyridin-4-yl}-2-(4-chlorophenyl)acetamide]
- IC50: 11.5 nM

Compound: CC(C)c1cn(CC(=O)Nc2cc(C(=O)c3cn(CCO)c4ncncc34)ccn2)nn1 [Example 129, N-(4-{[7-(2-hydroxyethyl)-7H-pyrrolo[2,3-d]pyrimidin-5-yl]carbonyl}pyridin-2-yl)-2-[4-(propan-2-yl)-1H-1,2,3-triazol-1-yl]acetamide]
- IC50: 201 nM

Compound: CC(C)n1cc(C(=O)c2cc(NC(=O)Cc3ccc(Cl)cn3)ccn2)c2cnc(N)nc21 [Example 86]
- IC50: 35 nM

Compound: N#Cc1ccc(CC(=O)Nc2cc(C(=O)c3cn(C(CO)CO)c4ncncc34)ccn2)cc1 [Example 114, 2-(4-cyanophenyl)-N-(4-{[7-(1,3-dihydroxypropan-2-yl)-7H-pyrrolo[2,3-d]pyrimidin-5-yl]carbonyl}pyridin-2-yl)acetamide]
- IC50: 536 nM
